Experimental data taken from PubChem BioAssay AID328 (DTP/NCI, 2004).
Several values for one entry are separate records, joined by “and”; a condition that tells them apart may be missing. Identical values can stand only once. Inconclusive results and toxic doses are left out.

System: BDF1 mice, P388 leukemia ip, median survival T/C
Test: NCI In Vivo Anticancer Drug Screen. Data for tumor model P388 Leukemia (intraperitoneal) in B6D2F1 (BDF1) mice
Details: endpoint: median survival time, higher = longer survival
How it was run: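 Each value expresses how treatment altered survival: treated-mouse outcome over vehicle-mouse outcome, both groups bearing the transplanted tumour.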

For COC1C(O)CC(OC2CC(Oc3cc4cc5c(c(O)c4c(O)c3C)C(=O)[C@@H](OC3CC(OC4CC(OC6CC(C)(O)C(OC(C)=O)C(C)O6)C(O)C(C)O4)C(O)C(C)O3)[C@H]([C@H](OC)C(=O)[C@@H](O)[C@@H](C)O)C5)OC(C)C2OC(C)=O)OC1C (stereo not given in full), the T/C (dose: 0.02 mg/kg/injection, schedule: Q01DX005 (ip), vehicle: saline) was 166 % of control, the T/C (dose: 0.03 mg/kg/injection, schedule: Q01DX001 (ip), vehicle: saline) was 109 % of control and the T/C (dose: 0.03 mg/kg/injection, schedule: Q01DX005 (ip), vehicle: saline) was 168 % of control. The T/C (dose: 0.03 mg/kg/injection, schedule: Q01DX009 (ip), vehicle: saline) was 150 % of control, the T/C (dose: 0.05 mg/kg/injection, schedule: Q01DX005 (ip), vehicle: clinical formulation) was 183 % of control and the T/C (dose: 0.05 mg/kg/injection, schedule: Q01DX005 (ip), vehicle: saline) was 166 % of control and 183 % of control and 187 % of control. The T/C (dose: 0.06 mg/kg/injection, schedule: Q01DX005 (ip), vehicle: saline) was 172 % of control, the T/C (dose: 0.06 mg/kg/injection, schedule: Q01DX009 (ip), vehicle: saline) was 172 % of control and the T/C (dose: 0.1 mg/kg/injection, schedule: Q01DX005 (ip), vehicle: clinical formulation) was 200 % of control. For the same compound, the T/C (dose: 0.1 mg/kg/injection, schedule: Q01DX005 (ip), vehicle: saline) was 187 % of control (2×) and 193 % of control, the T/C (dose: 0.13 mg/kg/injection, schedule: Q01DX001 (oral), vehicle: saline) was 100 % of control and the T/C (dose: 0.13 mg/kg/injection, schedule: Q01DX001 (sc), vehicle: Klucel (hydroxypropylcellulose) (HPC)) was 100 % of control. For the same compound, the T/C (dose: 0.13 mg/kg/injection, schedule: Q01DX005 (ip), vehicle: saline) was 177 % of control, the T/C (dose: 0.13 mg/kg/injection, schedule: Q01DX009 (ip), vehicle: saline) was 172 % of control and the T/C (dose: 0.13 mg/kg/injection, schedule: Q01DX010 (oral), vehicle: saline) was 100 % of control. For the same compound, the T/C (dose: 0.13 mg/kg/injection, schedule: Q01DX010 (sc), vehicle: Klucel (hydroxypropylcellulose) (HPC)) was 109 % of control, the T/C (dose: 0.15 mg/kg/injection, schedule: Q01DX005 (ip), vehicle: clinical formulation) was 225 % of control and the T/C (dose: 0.15 mg/kg/injection, schedule: Q01DX005 (ip), vehicle: saline) was 204 % of control. For the same compound, the T/C (dose: 0.2 mg/kg/injection, schedule: Q01DX005 (ip), vehicle: clinical formulation) was 170 % of control, the T/C (dose: 0.2 mg/kg/injection, schedule: Q01DX005 (ip), vehicle: saline) was 254 % of control and 260 % of control and 158 % of control and the T/C (dose: 0.25 mg/kg/injection, schedule: Q01DX001 (sc), vehicle: Klucel (hydroxypropylcellulose) (HPC)) was 100 % of control. The T/C (dose: 0.25 mg/kg/injection, schedule: Q01DX009 (ip), vehicle: saline) was 95 % of control, the T/C (dose: 0.25 mg/kg/injection, schedule: Q01DX010 (sc), vehicle: Klucel (hydroxypropylcellulose) (HPC)) was 95 % of control and the T/C (dose: 0.25 mg/kg/injection, schedule: Q04DX003 (ip), vehicle: saline) was 200 % of control. For the same compound, the T/C (dose: 0.4 mg/kg/injection, schedule: Q01DX001 (ip), vehicle: saline) was 150 % of control, the T/C (dose: 0.5 mg/kg/injection, schedule: Q01DX001 (ip), vehicle: other) was 175 % of control and the T/C (dose: 0.5 mg/kg/injection, schedule: Q01DX001 (oral), vehicle: saline) was 95 % of control. For the same compound, the T/C (dose: 0.5 mg/kg/injection, schedule: Q01DX001 (sc), vehicle: Klucel (hydroxypropylcellulose) (HPC)) was 109 % of control, the T/C (dose: 0.5 mg/kg/injection, schedule: Q01DX010 (oral), vehicle: saline) was 109 % of control and the T/C (dose: 0.5 mg/kg/injection, schedule: Q04DX003 (ip), vehicle: saline) was 100 % of control. For the same compound, the T/C (dose: 0.8 mg/kg/injection, schedule: Q01DX001 (ip), vehicle: saline) was 170 % of control, the T/C (dose: 1.0 mg/kg/injection, schedule: Q01DX010 (oral), vehicle: saline) was 100 % of control and the T/C (dose: 1.6 mg/kg/injection, schedule: Q01DX001 (ip), vehicle: saline) was 162 % of control. The T/C (dose: 2.0 mg/kg/injection, schedule: Q01DX001 (oral), vehicle: saline) was 109 % of control, the T/C (dose: 2.0 mg/kg/injection, schedule: Q01DX010 (oral), vehicle: saline) was 100 % of control and the T/C (dose: 0.9 micrograms/kg/injection, schedule: Q01DX010 (ip), vehicle: saline) was 90 % of control. For the same compound, the T/C (dose: 1.9 micrograms/kg/injection, schedule: Q01DX010 (ip), vehicle: saline) was 86 % of control, the T/C (dose: 3.8 micrograms/kg/injection, schedule: Q01DX010 (ip), vehicle: saline) was 100 % of control and the T/C (dose: 3.8 micrograms/kg/injection, schedule: Q03HX024 (ip), vehicle: saline) was 177 % of control. The T/C (dose: 8.0 micrograms/kg/injection, schedule: Q01DX010 (ip), vehicle: saline) was 150 % of control, the T/C (dose: 16.0 micrograms/kg/injection, schedule: Q01DX010 (ip), vehicle: saline) was 160 % of control and the T/C (dose: 32.0 micrograms/kg/injection, schedule: Q01DX010 (ip), vehicle: saline) was 180 % of control and 195 % of control. The T/C (dose: 60.0 micrograms/kg/injection, schedule: Q01DX010 (ip), vehicle: saline) was 154 % of control, the T/C (dose: 62.0 micrograms/kg/injection, schedule: Q01DX009 (ip), vehicle: other) was 150 % of control and the T/C (dose: 63.0 micrograms/kg/injection, schedule: Q01DX010 (ip), vehicle: saline) was 163 % of control and 185 % of control and 210 % of control. The T/C (dose: 125.0 micrograms/kg/injection, schedule: Q01DX001 (ip), vehicle: clinical formulation) was 154 % of control and 168 % of control and 181 % of control, the T/C (dose: 125.0 micrograms/kg/injection, schedule: Q01DX001 (ip), vehicle: water) was 213 % of control and the T/C (dose: 125.0 micrograms/kg/injection, schedule: Q01DX009 (ip), vehicle: other) was 166 % of control. The T/C (dose: 125.0 micrograms/kg/injection, schedule: Q01DX010 (ip), vehicle: saline) was 300 % of control and 209 % of control, the T/C (dose: 200.0 micrograms/kg/injection, schedule: Q01DX009 (ip), vehicle: saline) was 100 % of control and the T/C (dose: 250.0 micrograms/kg/injection, schedule: Q01DX001 (ip), vehicle: clinical formulation) was 186 % of control and 195 % of control and 200 % of control. The T/C (dose: 250.0 micrograms/kg/injection, schedule: Q01DX001 (ip), vehicle: water) was 250 % of control, the T/C (dose: 500.0 micrograms/kg/injection, schedule: Q01DX001 (ip), vehicle: clinical formulation) was 236 % of control and 190 % of control and 213 % of control and the T/C (dose: 1000.0 micrograms/kg/injection, schedule: Q01DX001 (ip), vehicle: clinical formulation) was 231 % of control. The T/C (dose: 2000.0 micrograms/kg/injection, schedule: Q01DX001 (ip), vehicle: clinical formulation) was 100 % of control.
